Source: paper PMC6001238, “Iterative Chemical Engineering of Vancomycin Leads to Novel Vancomycin Analogs With a High in Vitro Therapeutic Index” (Frontiers in Microbiology, 2018)
Converted amounts (≈) assume the structure as drawn. Like-named read-outs stand apart in the source and are kept apart here.

Assays:
[1] = tested on: human cervix carcinoma (HeLa) cells; experiment: Cytostatic activity, HeLa cell proliferation; type: cell-based; details: Homo sapiens, HeLa, 96 h; mean ± SD of three experiments; highest concentration tested 250 µM; 4 days; read-out: Toxicity (IC50) HeLa
Summary of the method: (§1)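 Readout: Coulter cell number after drug exposure at 37°C. Durations differ by line (L1210 2 days; CEM 3 days; HeLa 4 days). Stock suspension 300,000–500,000 cells/mL, diluted by mixing with compound. Endpoint: IC50 vs negative control.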

MRSA KS6 = experiment: MIC, broth microdilution, MRSA KS6; type: cell-based, Staphylococcus aureus
Summary of the method: (§2)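 Following CLSI antimicrobial susceptibility standards, organisms were tested by broth microdilution. Controls comprised ultrapure water plus broth left uninoculated. For a single condition, 10 μM vancomycin (final) accompanied the analog or control agent.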

VE 148 (VanB) = experiment: MIC, VanB-type VRE strain VE 148; type: cell-based, Enterococcus; details: Enterococcus; VE 148, VanB; read-out: MIC
Description: (§3) The minimum inhibitory concentration (MIC) was determined using the broth microdilution method according to the antimicrobial susceptibility testing standards of the clinical and laboratory standards institute ([Clinical and Laboratory Standards Institute [CLSI], 2012]). Ultrapure water and non-inoculated broth were used as controls. In one case, a final concentration of 10 μM vancomycin was included with the vancomycin analog or control antibiotic.

[2] = tested on: S. aureus VSSA (ATCC 6538); experiment: MIC, broth microdilution, vancomycin-sensitive S. aureus (VSSA/MSSA, ATCC 6538); type: cell-based, Staphylococcus aureus
Summary of the method: as §2

[3] = tested on: Murine leukemia (L1210) cells; experiment: Cytostatic activity, L1210 cell proliferation; type: cell-based; details: Mus musculus, L1210, 48 h; mean ± SD of three experiments; highest concentration tested 250 µM; 2 days; read-out: Toxicity (IC50) L1210
Summary of the method: as §1

MRSA = experiment: Minimum bactericidal concentration against MRSA; type: cell-based, Staphylococcus aureus
Description: Plates were incubated overnight at 37°C and colony growth was inspected.

S. aureus VRSA = experiment: MIC, broth microdilution, vancomycin-resistant S. aureus (VRSA); type: cell-based, Staphylococcus aureus
Summary of the method: as §2

VE 157 (VanB) = experiment: MIC, VanB-type VRE strain VE 157; type: cell-based, Enterococcus; details: Enterococcus; VE 157, VanB; read-out: MIC
Description: as §3

E. faecalis VRE 6 = experiment: MIC, broth microdilution, vancomycin-resistant E. faecalis VRE 6 (VanA); type: cell-based, Enterococcus faecalis
Summary of the method: as §2

E. faecalis VRE 53 = experiment: MIC, broth microdilution, vancomycin-resistant E. faecalis VRE 53 (VanA); type: cell-based, Enterococcus faecalis
Summary of the method: as §2

[4] = tested on: L1210, CEM and HeLa cell lines; experiment: Cytostatic activity, average or summary over L1210, CEM and HeLa; type: cell-based
Summary of the method: as §1

S. aureus VISA/HIP5827 = experiment: MIC, broth microdilution, vancomycin-intermediate S. aureus VISA HIP5827; type: cell-based, Staphylococcus aureus
Summary of the method: as §2

E. faecalis VRE 37 = experiment: MIC, broth microdilution, vancomycin-resistant E. faecalis VRE 37 (VanA); type: cell-based, Enterococcus faecalis
Summary of the method: as §2

VE 152 (VanB) = experiment: MIC, VanB-type VRE strain VE 152; type: cell-based, Enterococcus; details: Enterococcus; VE 152, VanB; read-out: MIC
Description: as §3

MRSA KS1 = experiment: MIC, broth microdilution, MRSA KS1; type: cell-based, Staphylococcus aureus
Summary of the method: as §2

MRSA KS2 = experiment: MIC, broth microdilution, MRSA KS2; type: cell-based, Staphylococcus aureus
Summary of the method: as §2

VE 149 (VanB) = experiment: MIC, VanB-type VRE strain VE 149; type: cell-based, Enterococcus; details: Enterococcus; VE 149, VanB; read-out: MIC
Description: as §3

[5] = tested on: 24 clinical MRSA isolates; experiment: MIC against a set of 24 clinical MRSA isolates (range, MIC50, TI); type: cell-based, Staphylococcus aureus
Description: as §3

VE 82 (VanC1) = experiment: MIC, VanC1-type VRE strain VE 82; type: cell-based, Enterococcus gallinarum; details: Enterococcus gallinarum; VE 82, VanC1; read-out: MIC
Description: as §3

MRSA KS89 = experiment: MIC, broth microdilution, MRSA KS89; type: cell-based, Staphylococcus aureus
Summary of the method: as §2

[6] = tested on: human T-lymphocyte (CEM) cells; experiment: Cytostatic activity, CEM cell proliferation; type: cell-based; details: Homo sapiens, CCRF-CEM, 72 h; mean ± SD of three experiments; highest concentration tested 250 µM; 3 days; read-out: Toxicity (IC50) CEM
Summary of the method: as §1

E. faecalis VSE 1 = experiment: MIC, broth microdilution, vancomycin-sensitive E. faecalis (VSE 1); type: cell-based, Enterococcus faecalis
Summary of the method: as §2

33 clinical VRE isolates = experiment: MIC against a set of 33 clinical VRE isolates (range, MIC50, TI); type: cell-based, Enterococcus faecalis
Description: as §3

E. faecalis VRE 29 = experiment: MIC, broth microdilution, vancomycin-resistant E. faecalis VRE 29 (VanA); type: cell-based, Enterococcus faecalis
Summary of the method: as §2

VE 150 (VanB) = experiment: MIC, VanB-type VRE strain VE 150; type: cell-based, Enterococcus; details: Enterococcus; VE 150, VanB; read-out: MIC
Description: as §3

SMILES: CN(C)c1cc(NC(=O)CNC(C)(C)C)c(O)c2c1C[C@H]1C[C@H]3[C@H](N(C)C)C(O)=C(C(N)=O)C(=O)[C@@]3(O)C(O)=C1C2=O [Tigecycline, reference compound]
- IC50 [1]: 24 ± 17 µM
- MIC-fold improvement vs. vancomycin (MRSA KS6; MRSA KS6, ratio of MIC of vancomycin and MIC of analogue): 0.5
- MIC (MRSA KS6; Staphylococcus aureus MRSA KS6, read-out: MIC): 1.56 µM (≈ 0.914 µg/mL)
- MIC (VE 148 (VanB)): 3.13 µM (≈ 1.83 µg/mL)
- MIC ([2]; ATCC6538, Staphylococcus aureus VSSA, read-out: MIC): 3.13 µM (≈ 1.83 µg/mL)
- MIC-fold improvement vs. vancomycin ([2]; VSSA, ratio of MIC of vancomycin and MIC of analogue): 0.3
- IC50 [3]: 9.4 ± 3.2 µM
- MBC relative to MIC (MRSA): more than four times higher than the corresponding MIC
- MIC (S. aureus VRSA; Staphylococcus aureus VRSA, read-out: MIC): 3.13 µM (≈ 1.83 µg/mL)
- MIC-fold improvement vs. vancomycin (S. aureus VRSA; VRSA, ratio of MIC of vancomycin and MIC of analogue): 32
- MIC (VE 157 (VanB)): 1.56 µM (≈ 0.914 µg/mL)
- MIC (E. faecalis VRE 6; Enterococcus faecalis VRE 6 (vancomycin-resistant), read-out: MIC): 3.13 µM (≈ 1.83 µg/mL)
- MIC-fold improvement vs. vancomycin (E. faecalis VRE 6; VRE 6, ratio of MIC of vancomycin and MIC of analogue): 64
- MIC (E. faecalis VRE 53; Enterococcus faecalis VRE 53 (vancomycin-resistant), read-out: MIC): 3.13 µM (≈ 1.83 µg/mL)
- MIC-fold improvement vs. vancomycin (E. faecalis VRE 53; VRE 53, ratio of MIC of vancomycin and MIC of analogue): 128
- IC50 ([4]; average IC50 used for TI in Table S5, >250 entered as 250, read-out: IC50): 14 µM
- IC50 ([4]; average of L1210, CEM and HeLa, read-out: Toxicity (IC50) Average): 14 µM
- MIC (S. aureus VISA/HIP5827; Staphylococcus aureus VISA/HIP5827, read-out: MIC): 3.13 µM (≈ 1.83 µg/mL)
- MIC-fold improvement vs. vancomycin (S. aureus VISA/HIP5827; VISA/HIP5827, ratio of MIC of vancomycin and MIC of analogue): 2
- MIC (E. faecalis VRE 37; Enterococcus faecalis VRE 37 (vancomycin-resistant), read-out: MIC): 3.13 µM (≈ 1.83 µg/mL)
- MIC-fold improvement vs. vancomycin (E. faecalis VRE 37; VRE 37, ratio of MIC of vancomycin and MIC of analogue): 128
- MIC (VE 152 (VanB)): 1.56 µM (≈ 0.914 µg/mL)
- MIC-fold improvement vs. vancomycin (MRSA KS1; MRSA KS1, ratio of MIC of vancomycin and MIC of analogue): 0.5
- MIC (MRSA KS1; Staphylococcus aureus MRSA KS1, read-out: MIC): 1.56 µM (≈ 0.914 µg/mL)
- MIC-fold improvement vs. vancomycin (MRSA KS2; MRSA KS2, ratio of MIC of vancomycin and MIC of analogue): 0.5
- MIC (MRSA KS2; Staphylococcus aureus MRSA KS2, read-out: MIC): 1.56 µM (≈ 0.914 µg/mL)
- MIC (VE 149 (VanB)): 1.56 µM (≈ 0.914 µg/mL)
- MIC Range ([5]; 24 clinical MRSA isolates): 0.78 to 6.25 µM
- MIC50 ([5]; Staphylococcus aureus, median MIC, 24 clinical MRSA isolates, read-out: MIC50): 1.56 µM (≈ 0.914 µg/mL)
- TI (IC50/MIC50) ([5]; in vitro therapeutic index, MRSA): 9
- MIC (VE 82 (VanC1)): 0.78 µM (≈ 0.457 µg/mL)
- MIC-fold improvement vs. vancomycin (MRSA KS89; MRSA KS8 (head; KS89 in title), ratio of MIC of vancomycin and MIC of analogue): 0.5
- MIC (MRSA KS89; Staphylococcus aureus MRSA KS8 (head; KS89 in title), read-out: MIC): 1.56 µM (≈ 0.914 µg/mL)
- IC50 [6]: 7.1 ± 2.1 µM
- MIC (E. faecalis VSE 1; VSE1, Enterococcus faecalis VSE 1 (vancomycin-sensitive), read-out: MIC): 3.13 µM (≈ 1.83 µg/mL)
- MIC-fold improvement vs. vancomycin (E. faecalis VSE 1; VSE 1, ratio of MIC of vancomycin and MIC of analogue): 0.5
- MIC Range (33 clinical VRE isolates; 33 clinical VRE isolates): ≤0.02 to 0.78 µM
- MIC50 (33 clinical VRE isolates; Enterococcus, median MIC, 33 clinical VRE isolates, read-out: MIC50): 0.2 µM (≈ 0.117 µg/mL)
- TI (IC50/MIC50) (33 clinical VRE isolates; in vitro therapeutic index, VRE): 70
- MIC (E. faecalis VRE 29; Enterococcus faecalis VRE 29 (vancomycin-resistant), read-out: MIC): 3.13 µM (≈ 1.83 µg/mL)
- MIC-fold improvement vs. vancomycin (E. faecalis VRE 29; VRE 29, ratio of MIC of vancomycin and MIC of analogue): 128
- MIC (VE 150 (VanB)): 1.56 µM (≈ 0.914 µg/mL)
